The values that follow come from ChEMBL document CHEMBL1201862, “PubChem BioAssay data set” (2004).

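Five concentrations, 48 hours, 96-well plates. GI50: concentration for 50% inhibition of growth.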 Active and inactive are the calls of the source. No stated cut-off is given here; in the data, active = GI50 up to about 1.1 µM and inactive = higher. Where only a bound is given, the exact number is not on record here.

Among the test systems are NCI-H460; SK-MEL-5; Malme-3M; U-251; OVCAR-3; OVCAR-5; UACC-62; HCC 2998; A549; MOLT-4; SNB-75; HL-60; K562; SW-620; HCT-116; SN12C; KM-20L2; DMS-273; HCT-15; RXF 393.
Common to all, as to assay: growth of human tumour cells (NCI), 48 h

In the case of `COc1ccc(C2C(Cl)C(=O)N2NC(=O)c2ccc(NC(C)=O)cc2)cc1OC` (configuration not stated), the GI50 with NCI-H460, in the test with SK-MEL-5, in the test on Malme-3M, in the test with U-251, in the test on OVCAR-3 and in the test on OVCAR-5 was > 100 µM (inactive) throughout. Also, the GI50 in the test on UACC-62, in the test on HCC 2998, in the test with A549, with MOLT-4, with SNB-75 and in the test with HL-60 was > 100 µM (inactive) in each case. Besides, the GI50 in the test with K562, in the test on SW-620 and in the test on HCT-116 was > 100 µM (inactive) in each case.
Turning to `CCn1cnnc1-c1nsc2ccccc12`, the GI50 is > 100 µM (inactive) with NCI-H460; 83.8 µM (inactive) with SK-MEL-5; > 100 µM (inactive) with SN12C; > 100 µM (inactive) in the test with KM-20L2; > 100 µM (inactive) in the test on U-251; 65.9 µM (inactive) in the test with OVCAR-3. In addition, the GI50 is 7.52 µM (inactive) in the test with OVCAR-5; > 100 µM (inactive) in the test on UACC-62; > 100 µM (inactive) with HCC 2998; > 100 µM (inactive) with A549; > 10 µM (inactive) with MOLT-4; 0.369 µM (active) in the test with SNB-75. The GI50 is > 100 µM (inactive) in the test with DMS-273; > 100 µM (inactive) in the test on HL-60; greater than 100 µM in the test on HCT-15; 68.1 µM (inactive) in the test on K562; > 100 µM (inactive) in the test with SW-620; 23.2 µM (inactive) with RXF 393. In the test on HCT-116, the GI50 was > 100 µM (inactive).
`Nc1c(-c2ccccc2[N+](=O)[O-])nc2ccccn12`: the GI50 in the test with NCI-H460, in the test on SK-MEL-5, in the test on SN12C, in the test with KM-20L2, in the test with Malme-3M and in the test on U-251 was > 100 µM (inactive) each time. Besides, the GI50 with OVCAR-3, in the test on OVCAR-5, with UACC-62, with HCC 2998, with MOLT-4 and in the test on DMS-273 was > 100 µM (inactive) each time. In addition, the GI50 in the test with HL-60 was > 100 µM (inactive); in the test with HCT-15 it was greater than 100 µM; in the test with K562 it was > 100 µM (inactive); with SW-620, > 100 µM (inactive); in the test on RXF 393, > 100 µM (inactive); in the test on HCT-116, > 100 µM (inactive).
